US20190328721A1, “METHOD OF ACTIVATING DENDRITIC CELLS” (KOREA INSTITUTE OF SCIENCE AND TECHNOLOGY, priority 2018, published 2019)

How the values were obtained:
[1] = test system: dendritic cells; test: Flow cytometry of dendritic cells from B16F10-Ova-bearing mice (maturation, subsets, cross presentation); format: in vivo
Experimental: To confirm the effect of the ROCK inhibitor Y27632 on the maturation process of dendritic cells, the inventors administered Y27362 to B16F10-Ova-bearing cancer model animals according to the same administration schedule as in Example 2-1, and the expression of CD40 and CD86, which are dendritic cell maturation markers, was analyzed by flow cytometry.
Recently, it has been shown that CD103 (corresponding to CD141 in humans)-positive dendritic cells (CD103 DC) play an important role in cancer cell phagocytosis and T cell anticancer immunity among dendritic cells (Broz et al., Cancer Cell, 26 (5): 638-652, 2014). Therefore, in order to analyze the effect of the ROCK inhibitor on CD103 DC, Y27632 was administered to B16F10-Ova-bearing cancer model mice according to the administration schedule described in the above Example 2-1, tumor tissues and tumor-draining lymph nodes were excised, and then flow cytometry analysis was performed using antibodies specifically binding to dendritic cell markers (CD11b, CD103 and CD8). It was confirmed that the ratio of CD103 DC was increased by Y27632 in both the tumor-draining lymph nodes (FIG. 15A) and the tumor tissues (FIG. 15B). On the other hand, in the case of CD11b-positive and CD8-positive dendritic cells, no change due to administration of Y27632 was observed.
The present inventors analyzed cross presentation activity which is one of functions of dendritic cells via flow cytometry analysis using an antibody capable of detecting a cancer antigen (H-2K^b-Ova) capable of activating T cells, through flow cytometry analysis using an antibody (H-2K^b monoclonal antibody, Invitrogen, USA). It was confirmed that the cross presentation of CD103 DC was increased by Y27632 in both tumor-draining lymph nodes (FIG. 15C) and tumor tissues (FIG. 15D).
Further, the present inventors analyzed CD40, which is one of the markers of dendritic cell function capable of activating T cells and a DC maturation marker of dendritic cells, by flow cytometry analysis using anti-CD40 antibodies. As shown in FIGS. 15E and 15F, it was confirmed that the maturation of CD103 DC was increased by Y27632 in the tumor-draining lymph nodes.
The present inventors analyzed a series of immunological induction processes occurring after the phagocytosis against cancer cells or cancer-specific antigens in order to analyze the mechanism of the combination therapy for the anti-cancer immune response. Specifically, in order to confirm the effect of the combination therapy on the dendritic cell maturation, Y27632 and doxorubicin were administered to B16F10-Ova-bearing cancer model mice as described above, and then tumor-draining lymph nodes were isolated and the expression of CD40 and CD86, which are dendritic cell maturation markers, was analyzed by flow cytometry analysis.
Further, in order to confirm the effect of the combined treatment on the cross presentation process to the dendritic cells, the present inventors administered Y27632 and doxorubicin to B16F10-Ova-bearing cancer model mice as described above, isolated the tumor-draining lymph nodes, and then cross presentation activity, which is one of functions of dendritic cells, was analyzed via flow cytometry analysis using an antibody capable of detect a cancer antigen (H-2K^b-Ova) capable of activating T cells, through flow cytometry analysis using an antibody (H-2K^b monoclonal antibody, Invitrogen, USA).
The present inventors then investigated the effect of the combination of the drugs on the maturation process of dendritic cells. Specifically, the tumor-draining lymph nodes were isolated after administration of Y27632 and/or cisplatin in the B16F10-Ova-bearing cancer model, and the expression level of CD40 and CD86, the dendritic cell maturation markers, was analyzed by flow cytometry. As shown in FIG. 19C and 19D, there was no influence on the maturation of dendritic cells when Y27632 alone, cisplatin alone, or the combination of the two were administered (FIGS. 19C and 19D). […]

[2] = test system: CT26.CL25 cell line; test: CT26.CL25 tumor model in immunodeficient nude mice; format: in vivo; conditions: 10 mg/kg intravenous
Experimental: Specifically, immunodeficient nude mice were subcutaneously injected with 1×10^6 cells of CT26.CL25 cell line in order to induce cancer. After the 11 days from the injection of the cancer cells, tumor size was 50-100 mm^3, and Y27632 was administered at a dose of 10 mg/kg continuously for two consecutive days by intravenous injection, followed by a day of rest as a cycle, followed by 3 cycles of 3-day intervals (FIG. 9A). As a negative control group, only phosphate buffered saline (PBS) was administered. The tumor tissues were excised and an ex vivo image was taken. In addition, before the mice were sacrificed, the change in body weight was measured at intervals of 3 days from the 11th day of cancer cell injection in the case of CT26.CL25 cancer model, and the length (L) and width (W) were measured, and the volume of the tumor tissues was measured using the equation described in Example 2-1 (FIG. 9B).

[3] = test system: CT26.CL25 cancer cell line; test: CT26.CL25 tumor model with depletion of immune cells; format: in vivo, mice; conditions: 10 mg/kg intravenous
Experimental: Specifically, tumor model mice were prepared by subcutaneously injecting 1×10^6 cells of CT26.CL25 cancer cell line expressing β-galactosidase into wild type mice by subcutaneous injection into the left side or the like.
For the depletion of phagocytic cells in the tumor model mice, 200 μl of control liposome (FormuMax Scientific, Inc., USA) or 200 μl of clodronate liposome (FormuMax Scientific, Inc., USA) were injected intraperitoneally 5 days after cancer cell injection, and then 100 μl of the liposomes were intraperitoneally injected at intervals of 4 days until the end of the experiment Similarly, for the depletion of CD8 T cells or CD4 T cells, 200 μg of anti-CD8a antibodies (clone 2.43, bioXcell) or anti-CD4 antibodies (Clone GK 1.5, bioXcell, USA) were intraperitoneally injected (FIGS. 10A and 10B) to the tumor model mice. As a negative control, only the carrier (PBS) or the rat-derived nonspecific antibodies (rIgG, Clone LTF-2, bioXcell, USA) was administered to the tumor model mice.
From the 6th day after the injection of the cancer cells, Y27632 was administered at a dose of 10 mg/kg continuously for two consecutive days via intravenous injection, followed by a day of rest as a cycle, followed by 3 cycles of 3-day intervals. Mice were sacrificed 22 days after the injection of cancer cells, the tumor tissues were excised, and ex vivo images were taken, and the tumor tissues were weighed. Before the sacrifice of the mice, the volume of the tumor over time was calculated as described above (FIGS. 10E and 10F). […] Thus, we confirmed that the therapeutic effect of ROCK inhibitors appears to require CD8 T cells. […] As a control, a rat-derived nonspecific antibody (rIgG, BioXcell, USA) was used.

[4] = tumor-draining lymph nodes, cisplatin study
[5] = tumor-draining lymph nodes, doxorubicin 5 mg/kg, Y27632 10 mg/kg

## C[C@@H](N)[C@H]1CC[C@H](C(=O)Nc2ccncc2)CC1 [Y27632]
[1]; mouse, in vivo
  ratio of CD8-positive dendritic cells: no change
  ratio of CD11b-positive dendritic cells: no change
[1]; tumor tissues
  cross presentation (H-2Kb-Ova) of CD103 DC: increased
  ratio of CD103 DC: increased
[1]; tumor-draining lymph node, schedule of Example 2-1
  expression of CD40 and CD86 in dendritic cells: did not affect
[1]; tumor-draining lymph nodes
  cross presentation (H-2Kb-Ova) of CD103 DC: increased
  cross-presentation (H-2Kb-Ova) in CD8 DCs: increased
  maturation of CD103 DC (CD40): increased
  ratio of CD103 DC: increased
[1]; [4]
  cross-presentation function (H-2Kb-Ova) of dendritic cells: increase
  maturation of dendritic cells (CD40 and CD86): no influence
[1]; [5]
  antigenic cross presentation (H-2Kb-Ova) in the dendritic cells: did not significantly increase
  dendritic cell maturation (expression of CD40 and CD86): no effect
[2]
  anti-cancer effect (tumor volume) in nude mice lacking immune function: only a limited anti-cancer effect
[3]
  anti-cancer effect when CD8 T cells were depleted by anti-CD8a antibodies: disappeared
  anti-cancer effect when phagocytic cells were depleted by clodronate: disappeared
  anticancer effect when CD4 T cells were deficient: anticancer effect similar to that in normal mice
